Where a SMILES comes first, the peptide text is derived from it. Bridges are numbered along the chain shown (N, C = ends). [ ]: non-standard residue; d: D form. The star is where a group is joined. Bip = N[C@@H](Cc1ccc(-c2ccccc2)cc1)C(=O)O; Ala(cPent) = N[C@@H](CC1CCCC1)C(=O)O; Cha = N[C@@H](CC1CCCCC1)C(=O)O; Gly(cPr) = N[C@H](C(=O)O)C1CC1; Chg = N[C@H](C(=O)O)C1CCCCC1; Carboxymethyl = O=C(O)C*; Nle = CCCC[C@H](N)C(=O)O; Orn = NCCC[C@H](N)C(=O)O; Dab = NCC[C@H](N)C(=O)O; Abu = CC[C@H](N)C(=O)O; Dap = NC[C@H](N)C(=O)O
target: T1, human PD-1 / PD-L1-Ig binding on Jurkat cell line over-expressing human PD-1 (Jurkat-PD-1) (Homo sapiens, UniProt Q15116); assay: Jurkat-PD-1 Cell Binding High-Content Screening Assay (CBA); assay type: cell-based; conditions: Jurkat HPD1_PDL1 IC50, Jurkat-PD-1 cells, PE-labeled PD-L1-Ig 20 nM final
T1 construct: expressed in transfected cells; host or cells: Jurkat
T1 sequence (Q15116 25-288): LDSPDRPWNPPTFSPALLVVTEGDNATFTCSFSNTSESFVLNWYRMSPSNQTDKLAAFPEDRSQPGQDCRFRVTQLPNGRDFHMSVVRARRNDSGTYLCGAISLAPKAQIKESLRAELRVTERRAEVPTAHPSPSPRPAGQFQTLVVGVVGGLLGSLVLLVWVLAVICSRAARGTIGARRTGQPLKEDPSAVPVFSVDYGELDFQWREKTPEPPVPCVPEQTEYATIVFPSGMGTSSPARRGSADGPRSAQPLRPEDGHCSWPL
How it was run: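 Read-out: high-content imaging of PE-tagged PD-L1-Ig bound to Jurkat cells overexpressing human PD-1, after fixation with 4% paraformaldehyde and Hoechst 33342 nuclear staining. Ligand was used at 20 nM final for 1 hour, after a 2 h compound exposure at 37° C in serum-containing DMEM.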

Q: Which IC50 does the source give for `CC[C@@H]1NC(=O)[C@H](Cc2c[nH]c3ccccc23)NC(=O)[C@H](CC(=O)O)NC(=O)[C@H](Cc2ccc(OCC(=O)O)cc2)NC(=O)[C@H](CN)NC(=O)CSC[C@@H](C(=O)N[C@@H](C)C(N)=O)NC(=O)[C@H]([C@@H](C)O)NC(=O)[C@H](C(C)C)NC(=O)[C@H](CC2CCCCC2)NC(=O)[C@H](CCN)NC(=O)[C@@H](CC(C)C)NC(=O)[C@H](CCCN)NC(=O)[C@H](C(C)C)NC(=O)[C@H](Cc2ccc(-c3ccccc3)cc2)NC1=O` [Compound 1729] ({CH2CO}-[Dap]Y(Carboxymethyl)DW[Abu][Bip]V[Orn][dL][Dab][Cha]VTCA-NH2; thioether N-14) here?
A: Its IC50 is 16.9 nM.

Q: For `CC(C)C[C@H]1NC(=O)[C@H](CCCN)NC(=O)[C@H](C(C)C)NC(=O)[C@H](Cc2ccc(-c3ccccc3)cc2)NC(=O)[C@H](C2CCCCC2)NC(=O)[C@H](Cc2c[nH]c3ccccc23)NC(=O)[C@H](CC(=O)O)NC(=O)[C@H](Cc2ccc(OCC(=O)O)cc2)NC(=O)[C@H](CN)NC(=O)CSC[C@@H](C(=O)N[C@@H](C)C(N)=O)NC(=O)[C@H]([C@@H](C)O)NC(=O)[C@H](C(C)C)NC(=O)[C@H](CC2CCCCC2)NC(=O)[C@H](CCN)NC1=O` [Compound 1730] ({CH2CO}-[Dap]Y(Carboxymethyl)DW[Chg][Bip]V[Orn][dL][Dab][Cha]VTCA-NH2; thioether N-14), which IC50 is on record?
A: The IC50 was 32.4 nM.

Q: Which IC50 does the source give for `CC(C)C[C@H]1NC(=O)[C@H](CCCN)NC(=O)[C@H](C(C)C)NC(=O)[C@H](Cc2ccc(-c3ccccc3)cc2)NC(=O)[C@H](CC2CCCC2)NC(=O)[C@H](Cc2c[nH]c3ccccc23)NC(=O)[C@H](CC(=O)O)NC(=O)[C@H](Cc2ccc(OCC(=O)O)cc2)NC(=O)[C@H](CN)NC(=O)CSC[C@@H](C(=O)N[C@@H](C)C(N)=O)NC(=O)[C@H]([C@@H](C)O)NC(=O)[C@H](C(C)C)NC(=O)[C@H](CC2CCCCC2)NC(=O)[C@H](CCN)NC1=O` [Compound 1731] ({CH2CO}-[Dap]Y(Carboxymethyl)DW[Ala(cPent)][Bip]V[Orn][dL][Dab][Cha]VTCA-NH2; thioether N-14) here?
A: The IC50 was 13 nM.

same assay, conditions: Jurkat-PD-1 cells, PE-labeled PD-L1-Ig 20 nM final; read-out: Jurkat HPD1_PDL1 IC50

Q: For `CC(C)C[C@H]1NC(=O)[C@H](CCCN)NC(=O)[C@H](C(C)C)NC(=O)[C@H](Cc2ccc(-c3ccccc3)cc2)NC(=O)[C@H](C2CC2)NC(=O)[C@H](Cc2c[nH]c3ccccc23)NC(=O)[C@H](CC(=O)O)NC(=O)[C@H](Cc2ccc(OCC(=O)O)cc2)NC(=O)[C@H](CN)NC(=O)CSC[C@@H](C(=O)N[C@@H](C)C(N)=O)NC(=O)[C@H]([C@@H](C)O)NC(=O)[C@H](C(C)C)NC(=O)[C@H](CC2CCCCC2)NC(=O)[C@H](CCN)NC1=O` [Compound 1732] ({CH2CO}-[Dap]Y(Carboxymethyl)DW[Gly(cPr)][Bip]V[Orn][dL][Dab][Cha]VTCA-NH2; thioether N-14), which IC50 is on record?
A: The IC50 was 18.3 nM.

Q: For `CC[C@H](C)[C@@H]1NC(=O)[C@H](Cc2c[nH]c3ccccc23)NC(=O)[C@H](CC(=O)O)NC(=O)[C@H](Cc2ccc(OCC(=O)O)cc2)NC(=O)[C@H](CN)NC(=O)CSC[C@@H](C(=O)N[C@@H](C)C(N)=O)NC(=O)[C@H]([C@@H](C)O)NC(=O)[C@H](C(C)C)NC(=O)[C@H](CC2CCCCC2)NC(=O)[C@H](CCN)NC(=O)[C@@H](CC(C)C)NC(=O)[C@H](CCCN)NC(=O)[C@H](C(C)C)NC(=O)[C@H](Cc2ccc(-c3ccccc3)cc2)NC1=O` [Compound 1733] ({CH2CO}-[Dap]Y(Carboxymethyl)DWI[Bip]V[Orn][dL][Dab][Cha]VTCA-NH2; thioether N-14), which IC50 is on record?
A: Its IC50 is 16.7 nM.

Q: With `CCCC[C@@H]1NC(=O)[C@H](Cc2c[nH]c3ccccc23)NC(=O)[C@H](CC(=O)O)NC(=O)[C@H](Cc2ccc(OCC(=O)O)cc2)NC(=O)[C@H](CN)NC(=O)CSC[C@@H](C(=O)N[C@@H](C)C(N)=O)NC(=O)[C@H]([C@@H](C)O)NC(=O)[C@H](C(C)C)NC(=O)[C@H](CC2CCCCC2)NC(=O)[C@H](CCN)NC(=O)[C@@H](CC(C)C)NC(=O)[C@H](CCCN)NC(=O)[C@H](C(C)C)NC(=O)[C@H](Cc2ccc(-c3ccccc3)cc2)NC1=O` [Compound 1734] ({CH2CO}-[Dap]Y(Carboxymethyl)DW[Nle][Bip]V[Orn][dL][Dab][Cha]VTCA-NH2; thioether N-14) as the molecule, how does the IC50 read?
A: Its IC50 is 10.8 nM.

— patent US20250163104A1, “MACROCYCLIC IMMUNOMODULATORS” (priority 2021, published 2025)
